In patent US11224667B2, “11C-labeled catechol derivative, pet probe of phosphorylated tau aggregation inhibitor using the same, and production method of the same” (NATIONAL CENTER FOR GERIATRICS AND GERONTOLOGY, priority 2017, dated 2022):

Assays:
[1] = test system: tau protein; conditions: cited from earlier work
[2] = Stability of isolated [11C]isoproterenol solution, radiochemical purity by HPLC; format: physicochemical
Protocol: Radiochemical purity and chemical purity of [2-^11C] isoproterenol in the solution after HPLC fractionation were analyzed by HPLC (CH3CN/acetic acid-ammonium acetate (pH 5.3), 10:90; column, CAPCELL PAK SCX UG 80, 4.6 (id)×150 mm; flow rate, 1 mL/min; UV detection, 278 nm; retention time, 6.5 min). [^11C] isoproterenol was confirmed by co-injection of unlabeled isoproterenol in HPLC. In the absence of addition of tartaric acid, the radiochemical purity immediately after isolation was 96%, whereas the radiochemical purity after 60 minutes dropped to 84% (see FIG. 3). […] This is presumed to be due to inhibition of deprotonation of two adjacent phenolic hydroxyl groups present in the catechol nucleus under acidic conditions and suppression of subsequent oxidative decomposition by oxygen molecules or superoxide. Also, the chemical purity measured at the above wavelength was >93%

[3] = test system: hyperphosphorylated tau-expressing mice; conditions: administered to hyperphosphorylated tau-expressing mice; cited from earlier work

Q: With `NCCc1ccc(O)c(O)c1` [dopamine] as the molecule, how does the “inhibition of aggregation of tau protein” value [1] read?
A: inhibited aggregation of tau protein

Q: For `CNCC(O)c1ccc(O)c(O)c1` (stereo not drawn) [adrenaline], which “inhibition of aggregation of tau protein” value [1] is on record?
A: inhibited aggregation of tau protein

Q: What does the source list for `CC(C)NCC(O)c1ccc(O)c(O)c1` (stereo not drawn) [[^11C] isoproterenol, [2-^11C] isoproterenol]?
A: radiochemical purity after 60 minutes ([2]; solution after HPLC fractionation, absence of addition of tartaric acid, 60 minutes after isolation): 84%; radiochemical purity immediately after isolation ([2]; solution after HPLC fractionation, absence of addition of tartaric acid, immediately after isolation): 96%; drop in radiochemical purity after 60 minutes ([2]; tartaric acid added, 60 minutes after isolation): no drop in radiochemical purity was observed

Q: Which “inhibition of aggregation of tau protein” value [1] does the source give for `CC(C)NCC(O)c1ccc(O)c(O)c1` [D/L-isoproterenol] here?
A: particularly strongly suppresses aggregation of tau protein

Q: What about the abnormal behavior [3] of the same molecule?
A: improvement of abnormal behavior

Q: What about the “aggregation of tau protein” value [3] of the same molecule?
A: suppression of aggregation of tau protein

Q: What about the nerve cell dropout [3] of the same molecule?
A: suppression of nerve cell dropout
